Where two headings read alike, the source gives them in different places.
How the values were obtained:
[1] = MTT cytotoxicity assay against normal cell line (Vero E6); conditions: African green monkey, Vero E6 cells
[2] = test system: SARS-CoV-2; experiment: microbe, parasite or virus in culture; type: cell-based; conditions: for IC50: Severe acute respiratory syndrome coronavirus 2, Vero C1008, SARS-CoV-2-induced cytopathic effect in Vero E6 cells; for Selectivity Index (SI): antiviral activity relative to cellular toxicity (CC50/IC50), Vero E6
[3] = test system: SARS-CoV-2; parameters: method as in PMID 34214752; conditions: cited from earlier work; for IC50: SARS-CoV-2 in Vero E6 cells, positive controls reported by the same laboratory
[4] = in vitro; conditions: African green monkey
[5] = test system: Vero E6 cells; conditions: positive controls reported by the same laboratory; cited from earlier work

Compound | CC50 [1] [µM] | IC50 [2] [µM] | Selectivity Index (SI) [2] | IC50 [3] [µM] | CC50 [4] [µM] | Selectivity Index (SI) ([3]; positive controls) | CC50 [5] [µM]
Oc1cc(O)c2c(c1)O[C@H](c1ccc(O)c(O)c1)[C@@H](O)C2 [Catechin, (+)−catechin] | 52.76 ± 0.079 | 58.55 ± 0.088 | 0.9 | – | – | – | –
CCN(CC)CCCC(C)Nc1ccnc2cc(Cl)ccc12 (stereo not shown) [Chloroquine] | – | – | – | 22.7 | – | – | –
O=C(O)c1cc(O)c(O)c(O)c1 [Gallic acid, 3,4,5-trihydroxybenzoic acid] | – | 96.41 ± 0.03 | 4.6 | – | 439.7 ± 0.065 | – | –
CCN(CCO)CCCC(C)Nc1ccnc2cc(Cl)ccc12 (stereo not shown) [Hydroxychloroquine] | – | – | – | 32.8 | – | 10.85 | 356
COc1cc2ccc(=O)oc2cc1O [Scopoletin, 7-hydroxy-6-methoxycoumarin] | – | 17.8 ± 0.91 | 14.22 | – | 253.1 ± 0.45 | – | –
COc1c(O)cc2oc(=O)ccc2c1OC [Umckalin, 7-hydroxy-5,6-dimethoxycoumarin] | 164.1 ± 0.54 | 311.6 ± 0.043 | 0.5 | – | – | – | –

From article PMC9610410, “Pelargonium sidoides Root Extract: Simultaneous HPLC Separation, Determination, and Validation of Selected Biomolecules and Evaluation of SARS-CoV-2 Inhibitory Activity” (Pharmaceuticals, 2022)
